From US12060577B2, “Compositions for expanding natural killer cells” (CASE WESTERN RESERVE UNIVERSITY, priority 2017, dated 2024)

Test system: OCI-AML3 target cells
Experiment: effect of TGF-beta and galunisertib on NK cell cytotoxicity (FIG. 11)
Type: cell-based
Conditions: 72 hours, NK cells expanded with K562 mbIL-21, 5:1 NK:target
Method: NK cell cytotoxic function was assessed by measuring the number of live cells identified by calcein-AM (CAM) labeling. Target cells and NK cells were labeled with CAM (BD Pharmingen, San Jose, Calif.) and calcein-violet (CV) (eBioscience from ThermoFisher), respectively for approximately 15 minutes in the dark at room temperature. NK cells were co-incubated with target cells at the indicated ratios for 4 hours in triplicate at 37° C. in a tissue culture incubator with 5% CO2, and the samples were analyzed by flow cytometry (Attune NXT, Invitrogen) in 96 well plates. The CV-positive NK cells were gated out for analysis. Percent lysis was calculated according to the equation below: […]
Referring to FIG. 11, expanded NK cells (K562 cells expressing mbIL-21) were treated with TGF-beta (5 ng/mL), galunisertib, or a combination thereof for 72 hours. […] That drop can be rescued and reversed by co-administering NK cells with galunisertib (middle and right bars), in which case killing efficacy was improved by about 10%.

Structure (SMILES): Cc1cccc(-c2nn3c(c2-c2ccnc4ccc(C(N)=O)cc24)CCC3)n1 [galunisertib]
- improvement of killing efficacy: about 10%
